Here are results for three compounds from patent publication US8889370B2, “Method of determining inhibitors of coagulation” (Siemens Healthcare Diagnostics Products GmbH, priority 2010, dated 2014).

In assay [1] the target is thrombin (Homo sapiens, UniProt P00734). Also noted: binding constant for thrombin: unit not given here. The conditions noted are these: cited from earlier work.
Assay [2] concerns the target T1, F Xa (Homo sapiens, UniProt P00742). The assay can be described thus: LOCI chemiluminescence competition assay for F Xa inhibitors in standard human plasma, ligand B-r-G-R-H. Set-up: 10 μl of a reagent containing human F Xa (approx. 1000 IU/l). The conditions noted are these: standard human plasma with increasing inhibitor concentrations, anti-F Xa antibody-coated Chemibeads, FIG. 9. It counts as binding. On the procedure:
The signal-producing system used was the LOCI system according to example 4.
The Chemibeads used herein were additionally coated with a commercially available polyclonal antibody to F Xa. For this, the antibody was linked covalently to the latex particles in a coupling ratio of 10 mg of antibody to […] of particles. The Sensibeads used herein were additionally coated with streptavidin.
The ligand used was the biotinylated peptide aldehyde biotinyl-Ttds-D-Arg-Gly-Arg-H (B-r-G-R—H).
In the absence of an F Xa inhibitor, the ligand binds, via its biotin residue, to the streptavidin-coated Sensibeads and, via its peptide moiety, to the F Xa which itself binds to the antibody-coated Chemibeads, and a chemiluminescence signal is generated (see also FIG. 1).
10 μl of a reagent containing human F Xa (approx. 1000 IU/l) and fibrin polymerization inhibitor peptide glycine-proline-arginine-proline (10 mg/ml) were admixed with 2 μl of sample, 20 μl of Chemibeads (400 μg/ml) and 10 μl of the ligand (6 μM) and incubated for 5 minutes. After addition of 60 μl of Sensibeads (200 μg/ml) and incubation for 10 minutes, the mix was filled with water to 260 μl and the chemiluminescence signal was measured. As FIG. 9 indicates, the chemiluminescence signal is reduced as a function of the type and concentration of the direct F Xa and thrombin inhibitors metered in.

For assay [3], the target named is T1, F Xa. Particulars: Prasa et al. 1997; Perzborn 2009; read-out: binding constant for F Xa; cited from earlier work.

Consider `O=C(NC[C@H]1CN(c2ccc(N3CCOCC3=O)cc2)C(=O)O1)c1ccc(Cl)s1` [rivaroxaban], for which the “binding to thrombin, times more weakly than to F Xa” value in assay [1] (Perzborn 2009) is “up to 10 000 times”. Also, the chemiluminescence signal result in assay [2] is “inversely proportional”.

Consider hirudin, for which the “binding constant for thrombin” value in assay [1] (Prasa et al. 1997) is listed as 2.7×10^−14. In addition, in assay [2], the chemiluminescence signal entry is reported as “not reduced”.

For the compound `CC1CNc2c(cccc2S(=O)(=O)N[C@@H](CCCNC(=N)N)C(=O)N2CC[C@@H](C)C[C@@H]2C(=O)O)C1` (stereo partly drawn) [argatroban], the Ki in assay [3] was 210 µM. The chemiluminescence signal entry in assay [2] is reported as “not reduced”.
